Here are results for one compound from patent publication US5240929A, “2-heterocyclic-5-hydroxy-1,3-pyrimidines useful as antiinflammatory agents” (Warner-Lambert Company, priority 1992, dated 1993).

The target of one test is T1, 5-lipoxygenase (Rattus norvegicus, UniProt P12527).
T1 construct: host or cells: RBL-1 (rat basophilic leukemia)
T1 sequence (P12527 1-673): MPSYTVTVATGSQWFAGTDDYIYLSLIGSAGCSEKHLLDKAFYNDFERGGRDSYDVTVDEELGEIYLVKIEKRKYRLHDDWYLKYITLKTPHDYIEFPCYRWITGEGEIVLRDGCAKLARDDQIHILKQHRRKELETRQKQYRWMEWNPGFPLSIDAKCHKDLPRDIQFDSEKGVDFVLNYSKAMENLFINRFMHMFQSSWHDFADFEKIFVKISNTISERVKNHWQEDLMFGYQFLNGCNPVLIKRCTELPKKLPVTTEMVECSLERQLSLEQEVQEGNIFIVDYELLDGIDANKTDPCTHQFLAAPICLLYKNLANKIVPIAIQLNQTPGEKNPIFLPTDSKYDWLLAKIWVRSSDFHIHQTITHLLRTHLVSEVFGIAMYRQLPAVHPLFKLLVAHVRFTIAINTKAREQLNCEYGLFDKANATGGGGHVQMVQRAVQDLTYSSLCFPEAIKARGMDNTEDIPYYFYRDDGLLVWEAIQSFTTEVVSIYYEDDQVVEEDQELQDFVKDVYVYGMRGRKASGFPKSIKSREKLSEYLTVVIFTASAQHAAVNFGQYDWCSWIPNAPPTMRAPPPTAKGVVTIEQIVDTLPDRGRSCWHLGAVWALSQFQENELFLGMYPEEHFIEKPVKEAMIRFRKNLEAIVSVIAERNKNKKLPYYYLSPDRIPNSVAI
Briefly: ARBL whole cell 5-lipoxygenase assay (inhibition of LTB4 formation in RBL-1 cells). The test is classed as cell-based. As to conditions: RBL-1 whole cells; 50% inhibition of LTB4 formation; calcium ionophore A23187 (5 μM); RIA. The procedure: (§1) ARBL/ARBC WHOLE CELL 5-LIPOXYGENASE AND CYCLOOXYGENASE ASSAYS The rat basophilic leukemia cell line (RBL-1) was obtained from the American Type Culture Collection (Rockville, Md.). Radioimmunoassay (RIA) kits of LTB4 and PGF2α were obtained from Amersham (Arlington Heights, Ill.) and Seragen (Boston, Mass.), respectively. RBL-1 cells are grown in suspension culture in Eagle's minimum essential medium supplemented with 12% fetal bovine serum at 37° C. in an incubator supplied with air-5% carbon dioxide. Cells are harvested by centrifugation. They are washed with cold phosphate buffered saline pH 7.4 (PBS; NaCl, 7.1 g; NaHPO, 1.15 g; KHPO, 0.2 g; and KCl, 0.2 g/l). Cells are finally suspended in PBS containing 1.0 mM calcium at a density of […] cells/ml. Cells are incubated with and without test agent (in DMSO) (1% DMSO is without effect on arachidonic acid metabolism) for ten minutes at room temperature. Calcium ionophore A23187 (5 μM) is added and cells are incubated for seven minutes at 37° C. The reaction is stopped by chilling the tubes on ice for ten minutes. Cells are separated by centrifugation and the supernatant is stored at -20°. Aliquots (100 μL) are analyzed for LTB4 and PGF2α using radioimmunoassay kits as provided by the supplier. […]

The subject of another test is cyclooxygenase. The test is described as follows: ARBC whole cell cyclooxygenase assay (inhibition of PGF2α formation in RBL-1 cells). The test is classed as cell-based, rat. As to conditions: RBL-1 whole cells; 50% inhibition of PGF2α formation; calcium ionophore A23187 (5 μM); RIA. As for the experimental part:
as §1

Regarding `CON(C)C(=O)c1nc(C(C)(C)C)c(O)c(C(C)(C)C)n1` [Example 1, 4,6-Bis(1,1-dimethylethyl)-5-hydroxy-N-methoxy-N-methyl-2-pyrimidinecarboxamide], the IC50 on 5-lipoxygenase was determined as 1180 nM; with cyclooxygenase it was 1350 nM.
